Molecular target: T1, Nuclear receptor ROR-gamma (Homo sapiens, UniProt P51449)
T1 sequence (P51449 whole entry): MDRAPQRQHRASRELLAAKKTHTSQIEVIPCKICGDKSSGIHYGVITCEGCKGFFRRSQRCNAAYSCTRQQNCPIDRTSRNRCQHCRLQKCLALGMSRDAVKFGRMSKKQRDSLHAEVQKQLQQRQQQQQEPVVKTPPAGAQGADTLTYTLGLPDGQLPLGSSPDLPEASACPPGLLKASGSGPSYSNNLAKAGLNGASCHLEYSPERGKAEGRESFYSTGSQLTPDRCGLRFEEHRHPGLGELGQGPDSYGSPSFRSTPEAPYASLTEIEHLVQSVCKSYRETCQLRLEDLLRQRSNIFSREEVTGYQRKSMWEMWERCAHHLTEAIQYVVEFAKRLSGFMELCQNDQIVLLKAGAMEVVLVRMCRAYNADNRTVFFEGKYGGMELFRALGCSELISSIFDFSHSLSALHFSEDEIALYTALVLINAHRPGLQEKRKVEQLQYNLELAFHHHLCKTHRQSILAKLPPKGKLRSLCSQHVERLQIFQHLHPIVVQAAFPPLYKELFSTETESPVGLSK
Test: Binding Assay: Compounds of the present invention were tested for ability to bind to RORγ in a cell-free competition assay with commercially available radio-ligand (RL), 25-hydroxy [26,27-3H]-cholesterol (PerkinElmer, Cat. #NET674250UC), for a ligand binding site on a recombinant RORγ Ligand Binding Domain (LBD) protein expressed as a 6×His-Glutathione-S-Transferase (GST) fusion. […] The plate was shaken at 700 rpm for 20 min and incubated for 10 min at rt, after which 40 μL of poly-Lys YSi SPA beads (PerkinElmer, Cat. #RPNQ0010) were added to achieve 50 μg of the beads per well. The plate was incubated on an orbital shaker for 20 min and then for 10 min without agitation at rt. SPA signal for tritium beta radiation was registered on PerkinElmer Microbeta plate reader.

Structure (SMILES) | Ki [µM]
CCS(=O)(=O)c1ccc(CNC(=O)c2cnc3c(c2)C(=O)N(Cc2ccc(Cl)cc2)[C@H]3C(C)C)cc1 | < 0.1
CCS(=O)(=O)c1ccc(C2(NC(=O)c3cnc4c(c3)CN(Cc3ccc(C(F)(F)F)cc3)[C@H]4C(C)C)CC2)nc1 | < 0.1
CCS(=O)(=O)c1ccc(CC(=O)Nc2cnc3c(c2)CN(Cc2ccc(Cl)cc2)[C@H]3C(C)C)cc1 | < 0.1

— ChEMBL document CHEMBL5726133, “Dihydropyrrolopyridine inhibitors of ROR-gamma” (2017)
